Assay results reported in patent EP0022634A1, “Acylated indole derivatives, processes for their preparation and pharmaceutical compositions and drugs comprising them” (TEIJIN LIMITED, priority 1979, dated 1981).
Converted amounts (≈) assume the structure as drawn. Read-outs that look alike come from different tables or passages of the source.

How the values were obtained:
platelet aggregation [1] = test: extra vivo platelet aggregation inhibiting activity after oral administration, collagen as aggregating agent; format: in vivo, guinea pigs; conditions: Cavia porcellus
Procedure: The collagent floating solution made by Hormone Company of west Germany was diluted with physiological saline to a concentration of 100 µg/ml for use in the test.
(§1) The platelet aggregation inhibiting activities extra vivo of drugs sampled at random were examined using guinea pigs.
(§2) The drugs were used dissolved in propylene glycol to a concentration of 1 mg/ml (when the dosage was 1 mg/kg), 10 mg/ml (when the dosage was 10 mg/kg), and 30 mg/ml (when the dosage was 30 mg/kg). The drugs were administered orally to male Hartley guinea pigs (three in a group) having a body weight of 300 to 350 g. Propylene glycol was administered to a control group.
(§3) One hour, or 4 hours after the administration, citrated blood was taken out from the subject by cardiac puncture.
(§4) The guinea pigs were caused to fast overnight before use.
(§5) The inhibiting rate of the test drugs was measured as follows: • 450 µℓ of PRP was put into a cuvette of an aggregometer, and then 50 µℓ of the aggregating agent was added. The aggregation curve was recorded for 3 minutes, and the maximum degree of aggregation was measured. As a blank, the maximum degree of aggregation of PRP of the group of guinea pigs to which propylene glycol had been administered was measured. The rate of inhibition was calculated from the following equation. [formula]
(§6) As the aggregating agent, 0.03 mM (final concentration sodium arachidonate and 5 µg/ml (final concentration) collagen floating solution were used.
For details of the extra vivo platelet aggregation inhibiting test, see Davis. H. M., Phyllis, J., Paul, K and Terry, W.: Thromb. Res. 11, 217-226 (1977) and Anderson R. E. and Foulks J. G.: Thromb. Haemos. 36, 343-359 (1976).

platelet aggregation [2] = test: extra vivo platelet aggregation inhibiting activity after oral administration, sodium arachidonate as aggregating agent; format: in vivo, guinea pigs; conditions: Cavia porcellus, 0.03 mM sodium arachidonate; for inhibition at 10 mg/kg: oral dosage 10 mg/kg; for inhibition at 1 mg/kg: oral dosage 1 mg/kg
Procedure: as §1, §2, §3, §4, §5, §6
For details of the extra vivo platelet aggregation inhibiting test, see Davis. H. M., Phyllis, J., Paul, K and Terry, W.: Thromb. […] Haemos.

platelet aggregation [3] = test: in vitro platelet aggregation inhibiting activity (sodium arachidonate as aggregating agent); format: cell-based; conditions: guinea pigs PRP, final concentration 0.1 millimole, minimum final concentration whose inhibiting rate exceeded 50 %
Procedure: The platelet aggregation inhibiting activities in vitro of test drugs including the acylated indole derivatives of this invention were assayed using guinea pigs PRP.
As an aggregating agent, sodium arachidonate having a final concentration of 0.1 millimole was used.
The citrated blood was centrifuged at 1000 rpm for 10 minutes at room temperature, and the supernatant liquid (PRP) was separated.
The resulting PRP was stored at room temperature, and used as early as possible. PRP stored for more than 4 hours was not used.
A compound having a free carboxylic acid as a residue, such as Indomethacin and Ibprofen, was dissolved in O.lM NaHC03 to provide a sodium salt solution having a concentration of 10 mg/ml. The solution was similarly diluted with physiological saline to prepare a solution of a test drug.
The solution was diluted with physiological saline to form a 1mM solution which was used in the test.
50 µℓ of physiological saline and 50 µℓ of the aggregating agent solution were added to 400 µℓ of PRP which had been warmed in a cuvette at 37°C in an aggregometer to aggregate the platelet. The aggregation curve was recorded for 3 minutes by an aggregometer (a product of Bryston Company). The maximum degree of aggregation in this platelet aggregation was defined as the maximum degree of aggregation in the blank.
Then, 50 µℓ of a 1mM solution of sodium arachidonate was added, and the platelet aggregation curve was recorded in the same way as in (1) above. From the curve, the maximum degree of aggregation was calculated, and the inhibiting rate was calculated in accordance with the following equation. Maximum degree of aggregation Inhibiting 100 - in the Ibprofen-added system 100 rate (%) Maximum degree of aggregation in the blank
If these inhibiting rates are not attained, the concentration of the solution of sodium arachidonate is not suitable, and therefore, its concentration should be re-adjusted, and the test shall be performed again.
50 µℓ of the test compound solution was added to 400 µℓ of PRP, and the mixture was pre-incubated in the same way as in(2) above. Then, 50 µℓ of the solution of sodium arachidonate having its concentration adjusted in (2) was added, and the aggregation curve was recorded for 3 minutes. The maximum degree of aggregation of platelet within this period was measured, and the rate of inhibition was calculated from the following equation. […] Maximum degree of aggregation Inhibiting _ 100 - in the drug-added system x 100 rate (%) Maximum degree of aggregation in the blank
For details of the in vitro platelet aggregation inhibiting test, see H. M. Davis, J. Phyllis, K. Paul and W. Terry: Thromb. […] Haemos.

[4] = po, 1 h, read-out: Rate of inhibition of platelet aggregation, Collagen, After 1 hour
[5] = po, 4 h, read-out: Rate of inhibition of platelet aggregation, Collagen, After 4 hours
[6] = blood taken 1 hour after administration, read-out: Rate of inhibition of platelet aggregation, Sodium arachidonate, After 1 hour
[7] = blood taken 4 hours after administration, read-out: Rate of inhibition of platelet aggregation, Sodium arachidonate, After 4 hours
[8] = Cavia porcellus, Platelet, read-out: IC50

Row | Compound | inhibition at 10 mg/kg (platelet aggregation [1]; [4]) [%] | inhibition at 10 mg/kg (platelet aggregation [1]; [5]) [%] | inhibition at 10 mg/kg (platelet aggregation [2]; [6]) [%] | inhibition at 10 mg/kg (platelet aggregation [2]; [7]) [%] | IC50 (platelet aggregation [3]; [8]) [µg/mL] | further results
1 | CCC(CO)n1c(C)c(C(=O)c2ccccc2)c2ccccc21 (stereo not drawn) [(101), 3-Benzoyl-1-(1-hydroxy-2-butyl)-2-methylindole] | 100 | 100 | 99 | 99 | 0.1 (≈ 0.325 µM) | 
2 | Cc1c(C(=O)c2ccccc2)c2ccccc2n1C(C)CCO (stereo not drawn) [(105), 3-Benzoyl-l-(4-hydroxy-2-butyl)-2-methylindole] | 100 | 100 | 100 | 100 | 0.075 (≈ 0.244 µM) | 
3 | Cc1c(C(=O)c2ccccc2)c2ccccc2n1[C@H](C)CO [(135), 3-Benzoyl-1-[1-hydroxy-2(R)-propyl]-2-methylindole] |  |  |  |  | 0.025 (≈ 0.0852 µM) | 
4 | Cc1c(C(=O)c2ccccc2)c2ccccc2n1[C@@H](C)CO [(136), 3-Benzoyl-1-(1-hydroxy-2(S)-propyl]-2-methylindole] |  |  |  |  | 0.05 (≈ 0.17 µM) | 
5 | CC(=O)OCC(C)n1c(C)c(C(=O)c2ccccc2)c2ccccc21 (stereo not drawn) [(200), 1-(1-Acetoxy-2-propyl)-3-benzoyl-2-methylindole] |  |  |  |  | 0.075 (≈ 0.224 µM) | inhibition at 1 mg/kg (platelet aggregation [2]; [6]): 90%; inhibition at 1 mg/kg (platelet aggregation [2]; [7]): 91.8%
6 | COCC(C)n1c(C)c(C(=O)c2cccs2)c2ccccc21 (stereo not drawn) [(315), 1-(1-Methoxy-2-propyl)-2-methyl-3-thenoylindole] |  |  |  |  |  | IC50 (platelet aggregation [3]): 0.01 to 0.1 µg/mL
7 | COC[C@@H](C)n1c(C)c(C(=O)c2ccccc2)c2ccccc21 [(346), 3-Benzoyl-1-[1-methoxy-2(R)-propyl]-2-methylindole] |  |  |  |  | 0.05 (≈ 0.163 µM) | 
8 | COC[C@H](C)n1c(C)c(C(=O)c2ccccc2)c2ccccc21 [(347), 3-benzoyl-1-[1-methoxy-2(S)-propyl)-2-methylindole] |  |  |  |  | 0.075 (≈ 0.244 µM) | 
9 | CSCC(C)n1c(C)c(C(=O)c2ccccc2)c2ccccc21 (stereo not drawn) [(402), 3-Benzoyl-2-methyl-1-(1-methylthio-2-propyl)-indole] |  |  |  |  | 0.075 (≈ 0.232 µM) | 
10 | Cc1c(C(=O)c2ccccc2)c2ccccc2n1C(C)CCSc1ccccn1 (stereo not drawn) [(414), 3-Benzoyl-2-methyl-l-(4-(2-pyridylthio)-2-butyl]indole] |  |  | 100 | 100 |  | 
11 | CCSCC(CC)n1c(C)c(C(=O)c2ccccc2)c2ccccc21 (stereo not drawn) [(417), 3-Benzoyl-1-(1-ethylthio-2-butyl)-2-methylindole] | 100 | 100 | 100 | 37 |  | 
12 | Cc1c(C(=O)c2ccccc2)c2ccccc2n1C(C)CCS (stereo not drawn) [(423), 3-Benzoyl-1-(4-mercapto-2-butyl)-2-methylindole] | 100 | 100 | 100 | 100 |  | 
13 | Cc1c(C(=O)c2ccccc2)c2ccccc2n1C(C)C[S+]([O-])c1ccccc1 (stereo not drawn) [(501), 1-(1-Benzenesulfinyl-2-propyl)-3-benzoyl-2-methylindole] | 100 | 100 | 100 | 100 |  | 
14 | CCC(C)n1c(C)c(C(=O)c2ccccc2)c2ccccc21 (stereo not drawn) [(701), 3-Benzoyl-1-(2-butyl)-2-methylindole] |  |  | 100 | 100 |  | 
15 | Cc1c(C(=O)c2ccccc2)c2ccccc2n1C(C)C(=O)O (stereo not drawn) [Comparison 1, reference compound] |  |  |  |  | 50 (≈ 163 µM) | 
16 | Cc1[nH]c2ccccc2c1C(=O)c1ccccc1 [Comparison 2, reference compound] |  |  |  |  | 5 (≈ 21.3 µM) | 
17 | COCCn1c(C)c(C(=O)c2ccccc2)c2ccccc21 [Comparison 4, reference compound] | 38 | 7.6 | 45.5 | 7.1 |  | 
18 | Cc1[nH]c2ccccc2c1C(=O)c1ccc(Cl)cc1 [Comparison 6, reference compound] |  |  | 12.3 | 6 |  | inhibition at 10 mg/kg (platelet aggregation [1]; oral dosage 10 mg/kg, 5 µg/ml collagen floating solution, blood taken 1 hour after administration, read-out: Rate of inhibition of platelet aggregation, Collagen, After 1 hour): 36%; inhibition at 10 mg/kg (platelet aggregation [1]; oral dosage 10 mg/kg, 5 µg/ml collagen floating solution, blood taken 4 hours after administration, read-out: Rate of inhibition of platelet aggregation, Collagen, After 4 hours): 28.9%
